In patent US20250144067A1, “PERSONALIZED STARVATION THERAPY FOR CANCER” (Faeth Therapeutics, Inc., priority 2021, published 2025):

system: NCI-H292 lung cancer cells; experiment: FDA drug screening, complete media vs cholesterol-free media without statin (TABLE 1); type: cell-based, human; details: Complete minus Cholesterol-free; […]

| Compound | Difference |
| --- | --- |
| Escin | −0.22 |

same assay, conditions: Complete minus Cholesterol-free; greater than 0 enhanced anti-cancer activity, about 0 neutral, below 0 antagonist

| Compound | Difference |
| --- | --- |
| CC1=C(C(=O)OCCN(Cc2ccccc2)c2ccccc2)C(c2cccc([N+](=O)[O-])c2)C(P2(=O)OCC(C)(C)CO2)=C(C)N1.CCO.Cl (centres unmarked) | −0.15 |
| Cc1cc2nc3c(=O)[nH]c(=O)nc-3n(C[C@H](O)[C@H](O)[C@H](O)COP(=O)(O)OP(=O)(O)OC[C@H]3O[C@@H](n4cnc5c(N)ncnc54)[C@H](O)[C@@H]3O)c2cc1C | −0.12 |
| C[S+](CC[C@H](N)C(=O)[O-])C[C@H]1O[C@@H](n2cnc3c(N)ncnc32)[C@H](O)[C@@H]1O.Cc1ccc(S(=O)(=O)O)cc1.O=S(=O)(O)O.O=S(=O)(O)O (some centres unmarked) | −0.11 |
| OC[C@H]1O[C@@H](O[C@@H]2[C@@H](CO)OC(O)(CO)[C@H]2O)[C@H](O)[C@@H](O)[C@H]1O (mixture of isomers) [Lactulose] | −0.16 |
| NC(=O)CCC(N)C(=O)O (racemic) [DL-Glutamine] | −0.07 |
| C[S+](C)CCC(N)C(=O)O.[Cl-] (racemic) [DL-Methionine methylsulfonium (chloride)] | −0.16 |

same assay, conditions: Complete minus Cholesterol-free; greater than 0 enhanced anti-cancer activity, about 0 neutral, below 0 antagonists

| Compound | Difference |
| --- | --- |
| COc1cc(O)c(C(=O)Nc2nc(C(=O)NCCN(C(C)C)C(C)C)cs2)cc1OC | −0.47 |

same assay, conditions: NCI-H292 cells in cholesterol-free media without statin

| Compound | Cholesterol-free |
| --- | --- |
| COc1cc(O)c(C(=O)Nc2nc(C(=O)NCCN(C(C)C)C(C)C)cs2)cc1OC | 1.419 |

same assay, conditions: NCI-H292 cells in complete media

| Compound | Complete |
| --- | --- |
| COc1cc(O)c(C(=O)Nc2nc(C(=O)NCCN(C(C)C)C(C)C)cs2)cc1OC | 0.9453 |

same assay, conditions: NCI-H292 cells, FDA drug library screen, cholesterol-free media without statin

| Compound | Cholesterol-free |
| --- | --- |
| CC1=C(C(=O)OCCN(Cc2ccccc2)c2ccccc2)C(c2cccc([N+](=O)[O-])c2)C(P2(=O)OCC(C)(C)CO2)=C(C)N1.CCO.Cl (centres unmarked) | 0.9837 |
| Cc1cc2nc3c(=O)[nH]c(=O)nc-3n(C[C@H](O)[C@H](O)[C@H](O)COP(=O)(O)OP(=O)(O)OC[C@H]3O[C@@H](n4cnc5c(N)ncnc54)[C@H](O)[C@@H]3O)c2cc1C | 0.9242 |
| C[S+](CC[C@H](N)C(=O)[O-])C[C@H]1O[C@@H](n2cnc3c(N)ncnc32)[C@H](O)[C@@H]1O.Cc1ccc(S(=O)(=O)O)cc1.O=S(=O)(O)O.O=S(=O)(O)O (some centres unmarked) | 1.112 |
| OC[C@H]1O[C@@H](O[C@@H]2[C@@H](CO)OC(O)(CO)[C@H]2O)[C@H](O)[C@@H](O)[C@H]1O (mixture of isomers) [Lactulose] | 1.109 |
| NC(=O)CCC(N)C(=O)O (racemic) [DL-Glutamine] | 1.771 |
| C[S+](C)CCC(N)C(=O)O.[Cl-] (racemic) [DL-Methionine methylsulfonium (chloride)] | 1.102 |

same assay, conditions: NCI-H292 cells, FDA drug library screen, complete media

| Compound | Complete |
| --- | --- |
| CC1=C(C(=O)OCCN(Cc2ccccc2)c2ccccc2)C(c2cccc([N+](=O)[O-])c2)C(P2(=O)OCC(C)(C)CO2)=C(C)N1.CCO.Cl (centres unmarked) | 0.8325 |
| Cc1cc2nc3c(=O)[nH]c(=O)nc-3n(C[C@H](O)[C@H](O)[C@H](O)COP(=O)(O)OP(=O)(O)OC[C@H]3O[C@@H](n4cnc5c(N)ncnc54)[C@H](O)[C@@H]3O)c2cc1C | 0.8033 |
| C[S+](CC[C@H](N)C(=O)[O-])C[C@H]1O[C@@H](n2cnc3c(N)ncnc32)[C@H](O)[C@@H]1O.Cc1ccc(S(=O)(=O)O)cc1.O=S(=O)(O)O.O=S(=O)(O)O (some centres unmarked) | 1.004 |
| OC[C@H]1O[C@@H](O[C@@H]2[C@@H](CO)OC(O)(CO)[C@H]2O)[C@H](O)[C@@H](O)[C@H]1O (mixture of isomers) [Lactulose] | 0.9456 |
| NC(=O)CCC(N)C(=O)O (racemic) [DL-Glutamine] | 1.698 |
| C[S+](C)CCC(N)C(=O)O.[Cl-] (racemic) [DL-Methionine methylsulfonium (chloride)] | 0.9454 |

same assay, conditions: NCI-H292 cells, cholesterol-free media without statin

| Compound | Cholesterol-free |
| --- | --- |
| Escin | 1.276 |

system: NCI-H292 lung cancer cells; experiment: FDA drug screening, complete media vs cholesterol-free media with simvastatin (TABLE 2); type: cell-based, human; details: NCI-H292 cells, FDA drug library screen, cholesterol-free media with simvastatin 0.04 μM

| Compound | Cholesterol-free media + simvastatin (0.04 μM) |
| --- | --- |
| CC1=C(C(=O)OCCN(Cc2ccccc2)c2ccccc2)C(c2cccc([N+](=O)[O-])c2)C(P2(=O)OCC(C)(C)CO2)=C(C)N1.CCO.Cl (centres unmarked) | 1.113 |
| C[S+](CC[C@H](N)C(=O)[O-])C[C@H]1O[C@@H](n2cnc3c(N)ncnc32)[C@H](O)[C@@H]1O.Cc1ccc(S(=O)(=O)O)cc1.O=S(=O)(O)O.O=S(=O)(O)O (some centres unmarked) | 1.19 |

same assay, conditions: NCI-H292 cells, FDA drug library screen, complete media

| Compound | Complete Media |
| --- | --- |
| CC1=C(C(=O)OCCN(Cc2ccccc2)c2ccccc2)C(c2cccc([N+](=O)[O-])c2)C(P2(=O)OCC(C)(C)CO2)=C(C)N1.CCO.Cl (centres unmarked) | 1.012 |
| C[S+](CC[C@H](N)C(=O)[O-])C[C@H]1O[C@@H](n2cnc3c(N)ncnc32)[C@H](O)[C@@H]1O.Cc1ccc(S(=O)(=O)O)cc1.O=S(=O)(O)O.O=S(=O)(O)O (some centres unmarked) | 1.075 |

same assay, conditions: NCI-H292 cells, FDA library drug in cholesterol-free media with simvastatin 0.04 μM

| Compound | Cholesterol-free media + simvastatin (0.04 μM) |
| --- | --- |
| NC(=O)CCC(N)C(=O)O (racemic) [DL-Glutamine] | 0.9407 |
| C[S+](C)CCC(N)C(=O)O.[Cl-] (racemic) [DL-Methionine methylsulfonium (chloride)] | 1.182 |

same assay, conditions: NCI-H292 cells, FDA library drug in complete media

| Compound | Complete Media |
| --- | --- |
| NC(=O)CCC(N)C(=O)O (racemic) [DL-Glutamine] | 0.6307 |
| C[S+](C)CCC(N)C(=O)O.[Cl-] (racemic) [DL-Methionine methylsulfonium (chloride)] | 0.8884 |

same assay, conditions: NCI-H292 cells, cholesterol-free media with simvastatin 0.04 μM; cell growth value in FDA drug screen

| Compound | Cholesterol-free media + simvastatin (0.04 μM) |
| --- | --- |
| OC[C@H]1O[C@@H](O[C@@H]2[C@@H](CO)OC(O)(CO)[C@H]2O)[C@H](O)[C@@H](O)[C@H]1O (mixture of isomers) [Lactulose] | 0.7227 |

same assay, conditions: NCI-H292 cells, complete media; cell growth value in FDA drug screen

| Compound | Complete Media |
| --- | --- |
| OC[C@H]1O[C@@H](O[C@@H]2[C@@H](CO)OC(O)(CO)[C@H]2O)[C@H](O)[C@@H](O)[C@H]1O (mixture of isomers) [Lactulose] | 0.8015 |

same assay, conditions: NCI-H292 cells, drug in cholesterol-free media with simvastatin 0.04 μM

| Compound | Cholesterol-free media + simvastatin (0.04 μM) |
| --- | --- |
| COc1cc(O)c(C(=O)Nc2nc(C(=O)NCCN(C(C)C)C(C)C)cs2)cc1OC | 1.16 |
| Cc1cc2nc3c(=O)[nH]c(=O)nc-3n(C[C@H](O)[C@H](O)[C@H](O)COP(=O)(O)OP(=O)(O)OC[C@H]3O[C@@H](n4cnc5c(N)ncnc54)[C@H](O)[C@@H]3O)c2cc1C | 1.111 |

same assay, conditions: NCI-H292 cells, drug in complete media

| Compound | Complete Media |
| --- | --- |
| COc1cc(O)c(C(=O)Nc2nc(C(=O)NCCN(C(C)C)C(C)C)cs2)cc1OC | 0.9105 |
| Cc1cc2nc3c(=O)[nH]c(=O)nc-3n(C[C@H](O)[C@H](O)[C@H](O)COP(=O)(O)OP(=O)(O)OC[C@H]3O[C@@H](n4cnc5c(N)ncnc54)[C@H](O)[C@@H]3O)c2cc1C | 0.8891 |

same assay, conditions: complete media minus cholesterol-free media + simvastatin; >0 enhanced anti-cancer activity, about 0 neutral, <0 antagonist

| Compound | Difference |
| --- | --- |
| OC[C@H]1O[C@@H](O[C@@H]2[C@@H](CO)OC(O)(CO)[C@H]2O)[C@H](O)[C@@H](O)[C@H]1O (mixture of isomers) [Lactulose] | 0.08 |

same assay, conditions: complete media vs cholesterol-free media + simvastatin (0.04 μM); >0 enhanced anti-cancer activity, about 0 neutral, <0 antagonist

| Compound | Difference |
| --- | --- |
| COc1cc(O)c(C(=O)Nc2nc(C(=O)NCCN(C(C)C)C(C)C)cs2)cc1OC | −0.25 |
| CC1=C(C(=O)OCCN(Cc2ccccc2)c2ccccc2)C(c2cccc([N+](=O)[O-])c2)C(P2(=O)OCC(C)(C)CO2)=C(C)N1.CCO.Cl (centres unmarked) | −0.10 |
| Cc1cc2nc3c(=O)[nH]c(=O)nc-3n(C[C@H](O)[C@H](O)[C@H](O)COP(=O)(O)OP(=O)(O)OC[C@H]3O[C@@H](n4cnc5c(N)ncnc54)[C@H](O)[C@@H]3O)c2cc1C | −0.22 |
| C[S+](CC[C@H](N)C(=O)[O-])C[C@H]1O[C@@H](n2cnc3c(N)ncnc32)[C@H](O)[C@@H]1O.Cc1ccc(S(=O)(=O)O)cc1.O=S(=O)(O)O.O=S(=O)(O)O (some centres unmarked) | −0.12 |
| NC(=O)CCC(N)C(=O)O (racemic) [DL-Glutamine] | −0.31 |
| C[S+](C)CCC(N)C(=O)O.[Cl-] (racemic) [DL-Methionine methylsulfonium (chloride)] | −0.29 |
